Source: PMC11868579 (Nature Communications, 2024)
Where “and” joins values, the source holds several entries; their conditions need not be identical. Identical values can stand only once.

Tests used:
eIF4E L85R = target: T1, eIF4E L85R (Homo sapiens, UniProt P06730, L85R); experiment: CETSA in eIF4E-dTAG model expressing L85R eIF4E; assay type: cell-based; conditions: intact cells
T1 construct: expressed in transfected cells; host or cells: H1299 eIF4E-dTAG clone C3-1, eIF4E-dTAG depleted with dTAG^V-1 before compound
T1 sequence (P06730 whole entry L85R): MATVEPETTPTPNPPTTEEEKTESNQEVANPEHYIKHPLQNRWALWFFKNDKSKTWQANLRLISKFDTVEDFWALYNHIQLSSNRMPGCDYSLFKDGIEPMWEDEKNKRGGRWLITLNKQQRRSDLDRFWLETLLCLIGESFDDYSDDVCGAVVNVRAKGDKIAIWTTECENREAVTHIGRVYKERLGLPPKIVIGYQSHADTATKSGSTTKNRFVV
Protocol: (§1) Cells (1.5 × 10^6 cells) were plated into 75 cm^2 flasks and allowed to attached overnight. After treatment with compound 4 or 5 for 6 h, they were harvested by trypsinisation and washed x2 in ice cold PBS. Cells were resuspended in 1 ml of cold PBS supplemented with protease and phosphatase inhibitors (Fisher Scientific, cat#1861281). Resuspended cells were divided into 100 μl aliquots and centrifuged at 300 x g for 3 min at 4 °C. Following centrifugation, 75μl of supernatant was removed and cells resuspended in the remaining volume. Cell suspensions were heated at 40.9, 43.7, 48.1, 52.9, 57.6, 62.4, 67.2, 71.9, 76.3 and 79.1 °C for 3 mins followed by cooling at 20 °C for 3 min[25]. Suspensions were freeze-thawed twice using liquid nitrogen. Soluble fractions were separated from cell debris by centrifuging at 20,000 x g for 30 min at 4 °C. Samples were then analysed by Western Blot.
(§2) Supplementary Fig. 18. Comparison of compound 4 binding to wild-type or […]
(§3) Cells were treated with dTAGV-1 (1 μM) for 16 hr. Compound 4 (10 μM) or compound 5 (10 μM) was then added for 6 hrs.
(§4) Vi nculin was used for loading control. Blots are from one biological repeat. b […]
(§5) was used as loading control . c Cells were treated with dTAGV -1 (1 μM) for 16 hr.
(§6) Compound 4 (50 μM) or compound 5 (50 μM) was then added for 6 hrs. […]
(§7) following incubation at 48.1 °C. Vinculin was used for loaing control. All blots are […]

eIF4E–4E-BP1 interaction = eIF4E–4E-BP1 interaction (Homo sapiens, UniProt P06730); experiment: Electro-chemiluminescent binding assay, eIF4E:4E-BP1, SW620 cell lysates; assay type: biochemical; set-up: endogenous in cells; host or cells: SW620 cell lysates; conditions: for 4E-BP1:eIF4E luminescence signal normalised to DMSO control: SW620, Expt 1, Expt 2, Fig. 4d
eIF4E–4E-BP1 interaction, sequence (P06730 2-217 limits assumed): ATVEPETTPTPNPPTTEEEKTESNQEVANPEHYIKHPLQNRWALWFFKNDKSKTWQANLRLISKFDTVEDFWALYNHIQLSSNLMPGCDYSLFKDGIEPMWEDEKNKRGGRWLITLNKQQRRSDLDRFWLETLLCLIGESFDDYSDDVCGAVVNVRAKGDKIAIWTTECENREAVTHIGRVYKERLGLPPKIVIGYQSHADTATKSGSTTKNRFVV
Protocol: This assay uses plates with carbon electrodes and electro-chemiluminescent labels (SULFO-TAGs) that are conjugated to detection antibodies. When an electric current is applied to the plate electrodes the SULFO-TAG labels will emit light that is measured to quantify analytes in the sample. […] The plates were washed with 3 ×150 µl/well MSD wash buffer (cat#R61AA-1; 0.2% Tween-20 in PBS), then blocked with 150 µl/well block buffer (MSD, cat# R93AA) for 1 h. […] The incubated plates were washed 4x in 150 µl in MSD wash buffer and were re-blocked by the addition of 25 μl of blocking buffer containing a 1:500 dilution of the secondary antibody and incubated for 1 hr at RT with rotational shaking. […] Plates were then washed again 4x in 150 µl in MSD wash buffer and 25 μl of a 1:50 dilution of Goat anti-rabbit Sulfo-Tag (MSD, Cat# R32AB-1) in MSD blocking buffer was added and the plates incubated for 1 h at RT with rotational shaking. After a final wash step, 150 μl Read Buffer T4X (MSD, Cat# R92-TC2) was added and the plate read using the MSD QuickPlex SQ 120 plate reader.

eIF4E W73F = target: T2, eIF4E W73F (Homo sapiens, UniProt P06730, W73F); experiment: CETSA in eIF4E-dTAG model expressing W73F eIF4E; assay type: cell-based; conditions: intact cells
T2 construct: expressed in transfected cells; host or cells: H1299 eIF4E-dTAG clone C3-1, eIF4E-dTAG depleted with dTAG^V-1 before compound
T2 sequence (P06730 whole entry W73F): as the sequence (P06730 whole entry L85R) above, with W73F, R85L counted along it
Protocol: as §1, §2, §3, §4, §5, §6, §7

[1] = target: T3, eIF4E minor variant D127N (N127) (Homo sapiens, UniProt P06730, D127N); experiment: Isothermal titration calorimetry, eIF4E minor variant; assay type: binding
T3 construct: made in house; host or cells: E. coli BL21-CodonPlus (DE3)-RIPL
T3 sequence (P06730 36-217 D127N): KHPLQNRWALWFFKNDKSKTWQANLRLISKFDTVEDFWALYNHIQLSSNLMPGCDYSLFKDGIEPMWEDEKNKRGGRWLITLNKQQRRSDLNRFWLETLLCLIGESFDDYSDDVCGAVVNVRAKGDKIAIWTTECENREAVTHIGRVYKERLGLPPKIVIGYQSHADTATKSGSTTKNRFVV
Protocol: ITC experiments were performed on either a MicroCal VP-ITC or a MicroCal Auto-ITC200 at 25 °C in a buffer comprising 50 mM HEPES, 100 mM NaCl, 1 mM TCEP and 5% DMSO at pH 7.5. Typical titrations on the MicroCal VP-ITC were performed using 17 × 16.4 µL injections with a 250 s spacing between each injection and with a stirring speed of 307 rpm. Typical titrations on the MicroCal Auto-ITC200 were performed using 12 × 3 µL injections with a 150 s spacing between each injection and with a stirring speed of 750 rpm. ITC data analyses were performed with Origin 7.0 software using the “One Set of Sites” model.

eIF4E = target: T4, eIF4E (Homo sapiens, UniProt P06730); experiment: CETSA in intact H1299 cells; assay type: cell-based; conditions: 6 hrs; for eIF4E stabilisation, eIF4E normalised to vinculin relative to average control (plotted on graph), Average: H1299, 57 °C, control = 1.000
T4 construct: endogenous in cells; host or cells: H1299
T4 sequence (P06730 whole entry): as the sequence (P06730 whole entry L85R) above, with R85L counted along it
Protocol: as §1

[2] = Suppl Fig. 10c, concentration response of Compound 4 (test not named); conditions: 3 experiments
[3] = test system: 4E-BP1 protein expression; experiment: Immunoblot of 4E-BP1 expression after dTAGV-1; assay type: cell-based, human; conditions: 1μM, control = 1.00
Protocol: Supplementary Fig. 15 Expression of 4E-BP1 following dTAGV-1 treatment. a […]
16 hr treatment of 1 µM dTAGV-1 or DMSO control in H1299 parental cells and the […]
Vinculin was used as a loading control. Results are representative of 3 biological replicates. b Quantification of 4E-BP1 protein expression […]
was normalised to the DMSO negative control immunoblot (mean ± SEM of 3 […]
differences (p<0.05). Source data is located in the Supplementary Source Data file.
(1 picture or pasted object on this page, not shown here)

SMILES: CC[C@H](O[C@H](C)CO)c1ccc(-c2ccccc2F)cc1NCCO [Compound 4]
- thermal stabilisation of L85R eIF4E (eIF4E L85R): showed evidence for compound 4 binding
- 4E-BP1:eIF4E luminescence signal normalised to DMSO control (eIF4E–4E-BP1 interaction; 0.4 μM): 98.1% and 93.2%
- 4E-BP1:eIF4E luminescence signal normalised to DMSO control (eIF4E–4E-BP1 interaction; 4 μM): 74.9% and 84.1%
- 4E-BP1:eIF4E luminescence signal normalised to DMSO control (eIF4E–4E-BP1 interaction; 12 μM): 74.8% and 76%
- 4E-BP1:eIF4E luminescence signal normalised to DMSO control (eIF4E–4E-BP1 interaction; 40 μM): 76.2% and 83.6%
- effect on 4E-BP1 binding to eIF4E (eIF4E–4E-BP1 interaction; SW620 cell lysates): not 4E-BP1 binding to eIF4E
- 4E-BP1:eIF4E SW620, luminescence ratio normalised to DMSO control (eIF4E–4E-BP1 interaction; SW620 lysates, 100 µM, 30 min, single experiments Expt 1, Expt 2): 103% and 91%
- thermal stabilisation of W73F eIF4E (eIF4E W73F): destabilised, rather than stabilised
- enthalpic contribution DH ([1]; ITC, eIF4E D127N): -12.0 kcal/mol and -12.0 ± 0.5 kcal/mol
- entropic penalty -TDS ([1]; ITC, eIF4E D127N): 1.4 ± 0.5 kcal/mol
- LE (ligand efficiency) ([1]; minor variant D127N): 0.42 (kcal/mol)/heavy atom
- Kd ([1]; read-out: eIF4E Kd, ITC, minor variant D127N): 17 nM
- eIF4E stabilisation, eIF4E normalised to vinculin relative to average control (plotted on graph), Average (eIF4E; 0.5 μM): 1.140
- eIF4E stabilisation, eIF4E normalised to vinculin relative to average control (plotted on graph), Average (eIF4E; 1 μM): 1.298
- eIF4E stabilisation, eIF4E normalised to vinculin relative to average control (plotted on graph), Average (eIF4E; 5 μM): 1.771
- eIF4E stabilisation, eIF4E normalised to vinculin relative to average control (plotted on graph), Average (eIF4E; 10 μM): 2.067
- protection of eIF4E from thermal denaturation (eIF4E; H1299 cells, 50 µM): protected eIF4E from thermal denaturation
- EC50 (eIF4E; read-out: EC50, thermal protection of eIF4E (target engagement), intact H1299 cells, 57.6 °C): 2000 nM
- Suppl Fig. 10c signal, Average ([2]; Conc 0.0398 uM): 107.08
- Suppl Fig. 10c signal, Average ([2]; Conc 0.0794 uM): 87.69
- Suppl Fig. 10c signal, Average ([2]; Conc 0.1585 uM): 100.85
- Suppl Fig. 10c signal, Average ([2]; Conc 0.3126 uM): 97.88
- Suppl Fig. 10c signal, Average ([2]; Conc 0.6252 uM): 95.93
- Suppl Fig. 10c signal, Average ([2]; Conc 1.0000 uM): 93.39
- Suppl Fig. 10c signal, Average ([2]; Conc 1.9999 uM): 114.58
- Suppl Fig. 10c signal, Average ([2]; Conc 3.9994 uM): 94.77
- Suppl Fig. 10c signal, Average ([2]; Conc 10.0000 uM): 126.74

SMILES: CC[C@H](C(=O)N1CCCC[C@H]1C(=O)O[C@H](CCc1ccc(OC)c(OC)c1)c1ccccc1OCC(=O)NCCCCCCC(=O)N[C@H](C(=O)N1C[C@H](O)C[C@H]1C(=O)N[C@@H](C)c1ccc(-c2scnc2C)cc1)C(C)(C)C)c1cc(OC)c(OC)c(OC)c1 [dTAG^V-1]
- Quantification of 4E-BP1 protein expression, Average ([3]; H1299 cells): 0.99
- Quantification of 4E-BP1 protein expression, Average ([3]; eIF4E dTAG C3-1 clone): 0.88
